Laboratory results reported in paper PMC8536830 (Current Biology, 2021).

How the values were obtained:
Type in all cases: cell-based, C. elegans
LGC-54 = LGC-54 (Caenorhabditis elegans, UniProt O17041); assay: Two-electrode voltage clamp, agonist-evoked currents in Xenopus oocytes expressing LGC-54
Description: We aimed to deorphanize C. elegans LGICs without known ligands, focusing on 5 genes in the putative monoamine-gated group: lgc-50; lgc-51; lgc-52; lgc-54; and lgc-56 (previously named ggr-3). Using heterologous overexpression in Xenopus oocytes and two-electrode voltage clamp recordings, we measured channel activity evoked by application of 11 monoamines and other neurotransmitters.
(§1) Defolliculated Xenopus laevis oocytes were obtained from EcoCyte Bioscience (Dortmund, Germany) and maintained in ND96 (in mM: 96 NaCl, 1 MgCl2, 5 HEPES, 1.8 CaCl2, 2 KCl) solution at 16°C for 3-5 days.
5'-capped cRNA was synthesized in vitro using the T3 mMessage mMachine transcription kit according to manufacturer’s protocol (Thermo Fischer Scientific, CA, USA). RNA was then purified using the GeneJET RNA purification kit (Thermo Fischer Scientific, CA, USA) prior to cRNA injection. Defolliculated Xenopus oocytes were placed individually into 96 well plates and injected with 50nL of 500ng/μL RNA using the Roboinject system (Multi Channel Systems GmbH, Reutlingen, Germany). When two constructs were injected the total RNA concentration remained 500ng/μL, with a 1:1 ratio of the components. Injected oocytes were incubated at 16°C in ND96 until the day of recording, typically between 3-5 days post injection.
Two-electrode voltage clamp recordings were carried out using the Robocyte2 recording system or a manual TEVC set up, using an OC-725D amplifier (Multi Channel Systems, Reutlingen, Germany) and paired with a custom-made recording chamber and agar bridges from reference and bath electrodes. Glass electrodes were pulled on a P-1000 Micropipette Puller (Sutter, Ca, USA) with a resistance ranging from 0.7-2 MΩ, pipettes, containing AgCl wires, were backfilled with a 3 M KCl solution for manual recordings and 1.5M KCl and 1 M acetic acid for Robocyte2 recordings. Oocytes were clamped at −60mV unless stated otherwise. Continuous recordings were taken during application of agonists and antagonists at 500 Hz. Data was recorded using WinWCP or RoboCyte2 control software, manual data was filtered at 10 Hz.
Dose response curves were calculated from the peak current during a 10 s agonist stimulation in ND96 solution, with a 60 s ND96 wash in between doses. Data was gathered over at least two occasions, using different batches of oocytes. Normalized dose response data was fitted to a nonlinear curve using a four parameters variable slope and the EC50 and Hill slope was calculated. All further recordings were carried out with the agonist at its EC50 concentration unless stated otherwise. Ion selectivity was determined using a voltage ramp protocol of 20mV/s ranging from −80mV to +60mV in the presence or absence of the primary agonist in three different solutions: ND96, NMDG (Na^+ free) and Na Gluconate (low Cl^-) solutions. Normalized ramp curves were fitted to a linear regression line and the x intercept was compared between solutions to calculate an average Erev from 4-5 oocytes. Antagonist dose response curves were calculated from the peak current during a 10 s agonist + antagonist stimulation in ND96 solution, with the agonist concentration remaining constant. Repeated agonist stimulus protocols were carried out by measuring the peak current during a 10 s agonist stimulation at three wash intervals, 10 s, 30 s and 60 s. Kinetic measurements were calculated from a 60 s agonist perfusion. Python scripts for TEVC analysis can be found at on GitHub at hiris25/TEVC-analysis-scripts and on Zenodo https://doi.org/10.5281/zenodo.5095181.
Dose response and antagonist response curves were generated using custom-built python scripts (key resources table), which combined data from multiple recordings and normalized data by calculating I/Imax for each oocyte.

LGC-50:MOD-1(327-458) = target: T1, LGC-50:MOD-1(327-458) (Caenorhabditis elegans, UniProt P41849); assay: Two-electrode voltage clamp, 5-HT evoked dose response, LGC-50 chimera with MOD-1 M3/4 loop; settings: Xenopus oocytes, TEVC; LGC-50 with M3/4 loop of MOD-1
T1 construct: Plasmid: KSM: lgc-50:mod-1(327-458) (cDNA); MOD-1 residues 327-458 (M3/4 loop); expressed in transfected cells; host or cells: Xenopus laevis oocytes injected with cRNA (plasmid pIH125)
T1 sequence (P41849 with tags, fused parts or gaps): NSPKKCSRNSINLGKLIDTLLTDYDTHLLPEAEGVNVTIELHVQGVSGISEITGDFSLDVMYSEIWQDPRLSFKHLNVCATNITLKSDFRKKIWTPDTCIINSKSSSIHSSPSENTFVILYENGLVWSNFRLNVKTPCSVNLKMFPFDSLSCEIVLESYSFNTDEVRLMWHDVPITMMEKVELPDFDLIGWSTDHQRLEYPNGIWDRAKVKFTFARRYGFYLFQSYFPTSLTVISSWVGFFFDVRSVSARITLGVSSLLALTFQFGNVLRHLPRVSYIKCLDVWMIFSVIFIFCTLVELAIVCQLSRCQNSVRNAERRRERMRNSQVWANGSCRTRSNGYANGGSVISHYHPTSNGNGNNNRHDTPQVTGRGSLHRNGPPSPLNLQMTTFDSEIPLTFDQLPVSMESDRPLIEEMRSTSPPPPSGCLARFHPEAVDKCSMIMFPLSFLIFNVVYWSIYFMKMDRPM
Protocol: To investigate, we exchanged the intracellular M3/4 loop of LGC-50 with the equivalent region of MOD-1 (LGC-50:MOD-1 327–458) and expressed the chimera in oocytes. […] The EC50 of the chimeric channels matched that of the recipient channel (Figures 5C and 5D).
as §1
5'-capped cRNA was synthesized in vitro using the T3 mMessage mMachine transcription kit according to manufacturer’s protocol (Thermo Fischer Scientific, CA, USA). […]
(§2) Two-electrode voltage clamp recordings were carried out using the Robocyte2 recording system or a manual TEVC set up, using an OC-725D amplifier (Multi Channel Systems, Reutlingen, Germany) and paired with a custom-made recording chamber and agar bridges from reference and bath electrodes. […] Data was recorded using WinWCP or RoboCyte2 control software, manual data was filtered at 10 Hz.
(§3) Dose response curves were calculated from the peak current during a 10 s agonist stimulation in ND96 solution, with a 60 s ND96 wash in between doses. […] Normalized dose response data was fitted to a nonlinear curve using a four parameters variable slope and the EC50 and Hill slope was calculated. […] Kinetic measurements were calculated from a 60 s agonist perfusion. […]

LGC-50 Δ363-397 = target: T2, LGC-50 Δ363-397 (Caenorhabditis elegans, UniProt P41849, DEL363-397); assay: Two-electrode voltage clamp, 5-HT evoked dose response, LGC-50 deletion mutant Δ363-397
T2 construct: Plasmid: KSM: lgc-50 (cDNA, Δ363 - 397); expressed in transfected cells; host or cells: Xenopus laevis oocytes injected with cRNA (plasmid pJML138)
T2 sequence (P41849 other isoform, or with tags, fused parts or gaps DEL363-397): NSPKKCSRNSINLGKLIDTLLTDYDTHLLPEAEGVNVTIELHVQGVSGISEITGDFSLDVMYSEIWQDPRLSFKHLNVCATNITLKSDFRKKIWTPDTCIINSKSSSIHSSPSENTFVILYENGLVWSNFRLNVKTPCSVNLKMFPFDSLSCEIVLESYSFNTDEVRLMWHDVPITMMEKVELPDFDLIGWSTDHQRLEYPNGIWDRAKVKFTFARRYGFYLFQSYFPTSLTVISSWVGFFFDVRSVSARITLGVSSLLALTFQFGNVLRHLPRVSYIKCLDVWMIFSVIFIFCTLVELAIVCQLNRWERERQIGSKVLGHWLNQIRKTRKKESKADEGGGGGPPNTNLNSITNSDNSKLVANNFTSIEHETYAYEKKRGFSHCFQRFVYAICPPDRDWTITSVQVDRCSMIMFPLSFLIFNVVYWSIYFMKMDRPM
Protocol: (§4) To identify such domains, we tested the effects of deletion mutations in the LGC-50 M3/4 loop (Figure 5A).
as §1
(§5) 5'-capped cRNA was synthesized in vitro using the T3 mMessage mMachine transcription kit according to manufacturer’s protocol (Thermo Fischer Scientific, CA, USA). RNA was then purified using the GeneJET RNA purification kit (Thermo Fischer Scientific, CA, USA) prior to cRNA injection. […]
as §2, §3

LGC-50 Δ363-379 = target: T3, LGC-50 Δ363-379 (Caenorhabditis elegans, UniProt P41849, DEL363-379); assay: Two-electrode voltage clamp, 5-HT evoked dose response, LGC-50 deletion mutant Δ363-379
T3 construct: Plasmid: KSM: lgc-50 (cDNA, Δ363-379); expressed in transfected cells; host or cells: Xenopus laevis oocytes injected with cRNA (plasmid pIH142)
T3 sequence (P41849 other isoform, or with tags, fused parts or gaps DEL363-379): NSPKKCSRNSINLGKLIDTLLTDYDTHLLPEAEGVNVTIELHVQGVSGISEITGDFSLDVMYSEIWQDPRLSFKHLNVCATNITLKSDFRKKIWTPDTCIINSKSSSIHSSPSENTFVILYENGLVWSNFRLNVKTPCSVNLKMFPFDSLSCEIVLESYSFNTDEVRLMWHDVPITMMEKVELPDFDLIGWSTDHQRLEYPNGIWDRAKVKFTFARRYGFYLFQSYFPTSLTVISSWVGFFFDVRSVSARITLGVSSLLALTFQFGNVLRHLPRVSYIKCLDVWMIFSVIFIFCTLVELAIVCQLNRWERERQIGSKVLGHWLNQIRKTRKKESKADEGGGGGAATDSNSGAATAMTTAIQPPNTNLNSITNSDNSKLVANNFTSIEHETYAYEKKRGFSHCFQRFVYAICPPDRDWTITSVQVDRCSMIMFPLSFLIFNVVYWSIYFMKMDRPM
Protocol: as §4, §1, §5, §2, §3

LGC-54, sequence (O17041 entry or part of it): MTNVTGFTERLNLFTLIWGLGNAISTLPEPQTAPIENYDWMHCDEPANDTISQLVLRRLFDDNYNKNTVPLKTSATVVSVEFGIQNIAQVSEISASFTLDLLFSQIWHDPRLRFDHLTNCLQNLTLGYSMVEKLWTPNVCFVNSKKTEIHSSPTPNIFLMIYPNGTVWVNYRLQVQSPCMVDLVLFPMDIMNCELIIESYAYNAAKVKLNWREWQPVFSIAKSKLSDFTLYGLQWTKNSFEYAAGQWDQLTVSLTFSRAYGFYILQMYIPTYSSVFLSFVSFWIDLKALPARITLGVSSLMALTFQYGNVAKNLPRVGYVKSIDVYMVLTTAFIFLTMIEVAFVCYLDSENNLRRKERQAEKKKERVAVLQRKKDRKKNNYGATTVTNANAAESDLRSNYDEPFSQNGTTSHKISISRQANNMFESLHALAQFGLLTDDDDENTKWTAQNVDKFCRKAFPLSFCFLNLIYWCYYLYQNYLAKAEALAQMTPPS

## NCCc1c[nH]c2ccc(O)cc12 [5-HT, serotonin]
LGC-54; Xenopus oocytes, TEVC, current normalized to Imax, Hill equation with variable slope, read-out: EC50, agonist-evoked dose response, LGC-54
  EC50: 94 µM
LGC-54; ligands screened at 100 μM, oocytes clamped at −60 mV
  Channel activation in ligand screen, LGC-54: responded to 5-HT at high concentrations
LGC-50:MOD-1(327-458)
  EC50: 0.85 µM
LGC-50 Δ363-397
  EC50: 0.93 µM
LGC-50 Δ363-379
  EC50: 0.93 µM
